Data from patent US6667034B2, “METHODS FOR REGULATING THE SPECIFIC LINEAGES OF CELLS PRODUCED IN A HUMAN HEMATOPOIETIC CELL CULTURE, METHODS FOR ASSAYING THE EFFECT OF SUBSTANCES ON LINEAGE-SPECIFIC CELL PRODUCTION, AND CELL COMPOSITIONS PRODUCED BY THESE CULTURES” (The Regents of the University of Michigan, priority 1989, dated 2003).

Tests used:
Format in all cases: cell-based
Human bone marrow cells [1] = assay: Population balance: cumulative production of CFU-GM removed and differentiated in HGF supplemented LTBMCs (Example 5, Table 7)
From the text: (§1) Production of Progenitor Cells from Stem Cells. Although the most primitive hematopoietic cells that can be directly assayed are the progenitor cells; CFU-GEMM, CFU-GM, and BFU-E, the presence and activity or earlier stem cells can be inferred by the continued production of progenitor cells. Thus, progenitor cell production is an indirect measure of primitive stem cell activity. One can assay stem cells, therefore, by analyzing the kinetics of the progenitor cell pool. The four process rates that determine the progenitor cell pool size are: V1: The rate of production of progenitor cells by more undifferentiated stem cells; V2: The rate of loss of progenitor cells through the act of sampling of nonadherent cells from the culture; V3: The rate of loss of progenitor cells by their differentiation to mature cells of a particular lineage; V4: The rate of death of progenitor cells. The initial number, C0, of each progenitor cell species can be determined by assay at culture initiation. The question that we wish to answer is; Are stem cells being stimulated to produced progenitor cells—i.e. is V1 greater than zero? Cell death, V4, cannot be assessed. V2 however, can be measured by assaying the nonadherent cells removed from culture, and V3 can be estimated from nonadherent cell production data. A conservative estimate of the rate of progenitor cell differentiation, V3, can be determined by assuming that each progenitor cell has 10 divisions remaining to become a terminally differentiated cell. Therefore, each progenitor cell is equivalent to 2^10 (1024) mature cells. From the total number of mature cells produced of a specific lineage, the number of progenitor cells (BFU-E and CFU-GM) that differentiated can be back-calculated. Therefore, if the removal and differentiation of progenitor cells (V2+V3) exceeds the numbers of progenitor cells inoculated, Co, then progenitor cells must have been produced, and V1 is greater than zero.

Human bone marrow cells [2] = assay: Cumulative number of progenitor cells removed from rapidly perfused HGF supplemented LTBMCs (Example 5, Table 5)
Experimental: Hematopoietic progenitor cell assay: Nonadherent hematopoietic cells removed from culture were counted and plated at 1·10^5 cells/ml or fewer cells in methylcellulose. GM-CSF and Epo were added to the methylcellulose at 20 ng/ml and 2 U/ml, respectively. The cells were plated in 24 well plates at 0.25 ml/well and incubated at 37° C. for 14 days. The colonies were then counted under an inverted microscope and colonies greater than 50 cells were scored as GM-colony forming units (CFU-GM), erythroid burst-forming unit (BFU-E), or granulocyte erythroid megakaryocyte macrophage-colony forming unit (CFU-GEMM). Cells, hematopoietic progenitor cell assays, LTBMCs, and statistical analyses were as in Example 1.

Human bone marrow cells [3] = assay: Cumulative cell production by cell lineage in growth factor supplemented LTBMCs over the first 6.5 weeks (Example 5, Table 4); conditions: first 6.5 weeks of culture
From the text: Cells, hematopoietic progenitor cell assays, LTBMCs, and statistical analyses were as in Example 1.

Human bone marrow cells [4] = assay: Population balance: cumulative production of BFU-E removed and differentiated in HGF supplemented LTBMCs (Example 5, Table 6)
From the text: as §1

[5] = back-calculated assuming each progenitor cell is equivalent to 2^10 (1024) mature cells
[6] = cumulative, rapidly perfused LTBMCs
[7] = rapidly perfused HGF supplemented LTBMCs
[8] = IL-3 1 ng/ml, GM-CSF 1 ng/ml, Epo 0.1 U/ml, IL-6 10 U/ml, G-CSF 0.1 ng/ml

## GM-CSF: hematopoietic growth factor, 1 ng/ml (Amgen Biologicals, Cat. No. 13050)
Human bone marrow cells [1]; [5]
  Estimated number of CFU-GM that differentiated (V3): 11,700
Human bone marrow cells [1]; [6]
  Number of GM cells removed (×10^4) (V3): 11.7 ×10^4
Human bone marrow cells [1]; every fourth biweekly sampling assayed, others by linear interpolation, inoculum 2500 CFU-GM
  Number of CFU-GM removed (plated) (V2): 2200
Human bone marrow cells [1]; removed plus differentiated
  Total number of CFU-GM (V3): 13,900
Human bone marrow cells [2]; [6]
  increase in the total number of CFU-GEMM removed from culture: 1.6 fold
Human bone marrow cells [2]; individual growth factor
  effect on total CFU-GM: only a slight increase
Human bone marrow cells [2]; [7]
  cumulative number of progenitor cells removed: BFU-E: 800
  cumulative number of progenitor cells removed: CFU-GEMM: 80
  cumulative number of progenitor cells removed: CFU-GM: 2200
Human bone marrow cells [3]; [8]
  Cumulative cell production: Early Granulocytes (EG): 2.7 ×10^6 cells per culture
  Cumulative cell production: Erythroid (E): 0.11 ×10^6 cells per culture
  Cumulative cell production: Late Granulocytes (LG): 6.8 ×10^6 cells per culture
  Cumulative cell production: Macrophages (Mo): 2.1 ×10^6 cells per culture
Human bone marrow cells [3]; late to early granulocytes
  ratio (LG/EG): 2.5
Human bone marrow cells [4]; [5]
  Estimated number of BFU-E that differentiated (V3): 100
Human bone marrow cells [4]; [6]
  Number of erythroid cells removed (×10^4) (V3): 0.1 ×10^4
Human bone marrow cells [4]; every fourth biweekly sampling assayed, others by linear interpolation, inoculum 2900 BFU-E
  Number of BFU-E removed (plated) (V3): 800
Human bone marrow cells [4]; removed plus differentiated, inoculum 2900
  Total number of BFU-E (V3): 900
